Results reported in US20230157952A1, “METHOD FOR IMPROVING THE STABILITY OF A PHARMACEUTICAL COMPOSITION COMPRISING A HIGH PENETRATION DRUG, AND THE PHARMACEUTICAL COMPOSITION OBTAINED THEREFROM” (Techfields Inc., priority 2020, published 2023).

Experiments:
[1] = Effect of pH value on the stability of the solution (purity); format: physicochemical; conditions: 25° C.
[2] = Stability of the pure HPDs (dry solid) at 25° C./RH 60%; format: physicochemical; conditions: pure HPD, 25° C./RH 60%
[3] = day 28, pH 1.0, 7% solution in water
[4] = day 28, pH 2.0, 7% solution in water
[5] = day 28, pH 3.0, 7% solution in water
[6] = day 28, pH 3.7, 7% solution in water
[7] = day 28, pH 5.0, 7% solution in water
[8] = day 28, pH 6.0, 7% solution in water
[9] = day 28, pH 7.0, 7% solution in water
[10] = day 28, pH 8.0, 7% solution in water
[11] = day 28, pH 1.0, 7% in 25% ethanol
[12] = day 28, pH 2.0, 7% in 25% ethanol
[13] = day 28, pH 3.0, 7% in 25% ethanol
[14] = day 28, pH 3.7, 7% in 25% ethanol
[15] = day 28, pH 4.0, 7% in 25% ethanol
[16] = day 28, pH 4.3, 7% in 25% ethanol
[17] = day 28, pH 4.6, 7% in 25% ethanol
[18] = day 28, pH 5.0, 7% in 25% ethanol
[19] = day 28, pH 6.0, 7% in 25% ethanol
[20] = day 28, pH 7.0, 7% in 25% ethanol
[21] = day 28, pH 8.0, 7% in 25% ethanol

Purity(%) from day 0-28 [1, 3] [%] | Purity(%) from day 0-28 [1, 4] [%] | Purity(%) from day 0-28 [1, 5] [%] | Purity(%) from day 0-28 [1, 6] [%] | Purity(%) from day 0-28 [1, 7] [%] | Purity(%) from day 0-28 [1, 8] [%] | Purity(%) from day 0-28 [1, 9] [%] | Purity(%) from day 0-28 [1, 10] [%] | Purity ([2]; 18 month) | Purity ([2]; 24 month) | Purity(%) from day 0-28 [1, 11] [%] | Purity(%) from day 0-28 [1, 12] [%] | Purity(%) from day 0-28 [1, 13] [%] | Purity(%) from day 0-28 [1, 14] [%] | Purity(%) from day 0-28 [1, 15] [%] | Purity(%) from day 0-28 [1, 16] [%] | Purity(%) from day 0-28 [1, 17] [%] | Purity(%) from day 0-28 [1, 18] [%] | Purity(%) from day 0-28 [1, 19] [%] | SMILES | Purity ([2]; 12 month) | other results
69.7 ± 0.3 | 80.1 ± 0.3 | 90.7 ± 0.3 | 97.1 ± 0.3 | 96.5 ± 0.3 | 89.0 ± 0.4 | 65.5 ± 0.3 | 45.5 ± 0.5 | 97.9 ± 0.3 | 97.7 ± 0.4 |  |  |  |  |  |  |  |  |  | Br.CCN(CC)CCOC(=O)C(C)c1ccc2cc(OC)ccc2c1 (racemic) [C-2, 2-(diethylamino)ethyl (R,S)-2-(6-methoxy-2-naphthyl) propionate•HBr salt] |  | Purity ([2]; 3 month, listed as A-1-4): 98.9 ± 0.1; Purity ([2]; 6 month, listed as A-1-4): 98.6 ± 0.4; Purity ([2]; 9 month): 98.1 ± 0.1; Purity ([2]; 24 month, listed as A-1-4): 98.0 ± 0.4; Purity ([2]; Day 0, listed as A-1-4): 98.6 ± 0.3
68.2 ± 0.4 | 80.1 ± 0.3 | 90.3 ± 0.3 | 96.8 ± 0.2 | 96.0 ± 0.3 | 88.4 ± 0.3 | 55.8 ± 0.4 | 35.8 ± 0.5 | 97.9 ± 0.4 | 97.8 ± 0.3 |  |  |  |  |  |  |  |  |  | CCN(CC)CCOC(=O)[C@H](C)c1ccc2cc(OC)ccc2c1.O=C(O)CC(O)(CC(=O)O)C(=O)O (racemic) [C-3, 2-(diethylamino)ethyl (R,S)-2-(6-methoxy-2-naphthyl) propionate•citric acid salt] | 98.1 ± 0.3 | Purity(%) from day 0-28 ([1]; day 28, pH 4.0, 7% solution in water): 97.1 ± 0.2%; Purity(%) from day 0-28 ([1]; day 28, pH 4.3, 7% solution in water): 97.1 ± 0.3%; Purity(%) from day 0-28 ([1]; day 28, pH 4.6, 7% solution in water): 97.0 ± 0.3%
 |  |  |  |  |  |  |  | 97.9 ± 0.1 | 97.7 ± 0.4 | 65.3 ± 0.3 | 77.4 ± 0.3 | 88.4 ± 0.2 | 95.7 ± 0.3 | 96.6 ± 0.4 | 96.8 ± 0.3 | 96.8 ± 0.2 | 93.1 ± 0.4 | 85.3 ± 0.2 | CC(C)Cc1ccc([C@@H](C)C(=O)OCCN(C)C)cc1.Cl (racemic) [C-5, 2-(dimethylamino)ethyl (R,S)-2-(p-isobutylphenyl)propionate•HCl salt] | 98.0 ± 0.4 | Purity(%) from day 0-28 [1, 20]: 47.1 ± 0.3%; Purity(%) from day 0-28 [1, 21]: 34.9 ± 0.5%; Purity ([2]; 3 month): 98.1 ± 0.2; Purity ([2]; 6 month): 98.1 ± 0.3

The remaining lines, values behind:

SMILES | Purity(%) from day 0-28 [1, 3] [%] | Purity(%) from day 0-28 [1, 4] [%] | Purity(%) from day 0-28 [1, 5] [%] | Purity(%) from day 0-28 [1, 6] [%] | Purity(%) from day 0-28 [1, 7] [%] | Purity(%) from day 0-28 [1, 8] [%] | Purity(%) from day 0-28 [1, 9] [%] | Purity(%) from day 0-28 [1, 10] [%] | Purity ([2]; 18 month) | Purity ([2]; 24 month) | Purity(%) from day 0-28 [1, 11] [%] | Purity(%) from day 0-28 [1, 12] [%] | Purity(%) from day 0-28 [1, 13] [%] | Purity(%) from day 0-28 [1, 14] [%] | Purity(%) from day 0-28 [1, 15] [%] | Purity(%) from day 0-28 [1, 16] [%] | Purity(%) from day 0-28 [1, 17] [%] | Purity(%) from day 0-28 [1, 18] [%] | Purity(%) from day 0-28 [1, 19] [%] | Purity ([2]; 12 month) | other results
CCCCN(CCCC)CCOC(=O)C(C)c1ccc(CC(C)C)cc1.Cl (racemic) [C-6, 2-(dibutylamino)ethyl (R,S)-2-(p-isobutylphenyl)propionate•HCl salt] |  |  |  |  |  |  |  |  |  | 98.1 ± 0.2 | 68.4 ± 0.3 | 79.2 ± 0.4 | 91.2 ± 0.3 | 96.9 ± 0.2 | 97.3 ± 0.2 | 97.3 ± 0.3 | 97.1 ± 0.3 | 94.5 ± 0.3 | 89.2 ± 0.4 |  | Purity(%) from day 0-28 [1, 20]: 51.5 ± 0.3%; Purity(%) from day 0-28 [1, 21]: 35.1 ± 0.3%
CCN(CC)CCOC(=O)c1ccccc1OC(C)=O.O=C(O)c1ccccc1 [A-2, 2-(diethylamino)ethyl acetylsalicylate•benzoic acid salt] |  |  |  |  |  |  |  |  | 97.6 ± 0.2 | 97.1 ± 0.2 |  |  |  |  |  |  |  |  |  | 97.9 ± 0.1 | Purity(%) from day 0-14 ([1]; day 14, pH 1.0, 7% in water): 60.5 ± 0.3%; Purity(%) from day 0-14 ([1]; day 14, pH 2.0, 7% in water): 79.7 ± 0.4%; Purity(%) from day 0-14 ([1]; day 14, pH 3.0, 7% in water): 91.0 ± 0.2%; Purity(%) from day 0-14 ([1]; day 14, pH 3.7, 7% in water): 94.1 ± 0.2%; Purity(%) from day 0-14 ([1]; day 14, pH 4.0, 7% in water): 95.0 ± 0.3%; Purity(%) from day 0-14 ([1]; day 14, pH 4.3, 7% in water): 95.0 ± 0.4%; Purity(%) from day 0-14 ([1]; day 14, pH 4.6, 7% in water): 94.4 ± 0.3%; Purity(%) from day 0-14 ([1]; day 14, pH 5.0, 7% in water): 87.3 ± 0.2%; Purity(%) from day 0-14 ([1]; day 14, pH 6.0, 7% in water): 78.3 ± 0.3%; Purity(%) from day 0-14 ([1]; day 14, pH 7.0, 7% in water): 56.0 ± 0.4%; Purity(%) from day 0-14 ([1]; day 14, pH 8.0, 7% in water): 17.7 ± 0.4%
CC(O)C(=O)O.CCN(CC)CCOC(=O)c1ccccc1OC(C)=O [A-3, 2-(diethylamino)ethyl acetylsalicylate•lactic acid salt] |  |  |  |  |  |  |  |  | 97.3 ± 0.1 | 96.8 ± 0.2 |  |  |  |  |  |  |  |  |  | 97.9 ± 0.2 | Purity(%) from day 0-14 ([1]; day 14, pH 1.0, 7% in water): 57.9 ± 0.4%; Purity(%) from day 0-14 ([1]; day 14, pH 2.0, 7% in water): 77.0 ± 0.4%; Purity(%) from day 0-14 ([1]; day 14, pH 3.0, 7% in water): 88.7 ± 0.2%; Purity(%) from day 0-14 ([1]; day 14, pH 3.7, 7% in water): 93.1 ± 0.3%; Purity(%) from day 0-14 ([1]; day 14, pH 4.0, 7% in water): 94.1 ± 0.4%; Purity(%) from day 0-14 ([1]; day 14, pH 4.3, 7% in water): 94.4 ± 0.2%; Purity(%) from day 0-14 ([1]; day 14, pH 4.6, 7% in water): 94.1 ± 0.2%; Purity(%) from day 0-14 ([1]; day 14, pH 5.0, 7% in water): 85.6 ± 0.4%; Purity(%) from day 0-14 ([1]; day 14, pH 6.0, 7% in water): 78.3 ± 0.3%; Purity(%) from day 0-14 ([1]; day 14, pH 7.0, 7% in water): 55.1 ± 0.3%; Purity(%) from day 0-14 ([1]; day 14, pH 8.0, 7% in water): 15.0 ± 0.4%
